Measured values: PubChem BioAssay (NCI)
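Compound exposure: 48 hours, 5 concentrations, 96-well plates. TGI denotes the concentration required for complete inhibition of growth.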

Key:
Test in all cases: DTP human tumour cell line panel, 48 h
HT29 colon = tested on: HT29 colon
LOX IMVI melanoma = tested on: LOX IMVI melanoma
CCRF-CEM leukemia = tested on: CCRF-CEM leukemia
A549 NSCLC = tested on: A549 NSCLC
OVCAR-5 ovarian = tested on: OVCAR-5 ovarian
SR leukemia = tested on: SR leukemia
MOLT-4 leukemia = tested on: MOLT-4 leukemia
UACC-257 melanoma = tested on: UACC-257 melanoma
OVCAR-8 ovarian = tested on: OVCAR-8 ovarian
COLO 205 colon = tested on: COLO 205 colon
UACC-62 melanoma = tested on: UACC-62 melanoma

Row | Compound | TGI (HT29 colon) | TGI (LOX IMVI melanoma) | TGI (CCRF-CEM leukemia) | TGI (A549 NSCLC) | TGI (OVCAR-5 ovarian) | TGI (SR leukemia) | TGI (MOLT-4 leukemia) | TGI (UACC-257 melanoma) | TGI (OVCAR-8 ovarian) | TGI (COLO 205 colon) | TGI (UACC-62 melanoma)
1 | c1ccc(-c2cc(-c3ccncc3)cc(-c3ccncc3)n2)cc1 | > 100 µM | > 100 µM | > 100 µM | > 100 µM | > 100 µM | > 100 µM | > 100 µM | > 100 µM | > 100 µM | > 100 µM | > 100 µM
2 | CCCn1c(=O)c2nn3c(=O)n(CCC)c(=O)c3nn2c1=O | > 100 µM | > 100 µM | > 100 µM | > 100 µM | > 100 µM | > 100 µM | > 100 µM | > 100 µM | > 100 µM | > 100 µM | > 100 µM
3 | C/C(=N\O)C1CC2C=C(C#N)C1N(Cc1ccccc1)C2 (stereo unspecified) | > 100 µM | > 100 µM | > 100 µM | > 100 µM | > 100 µM | > 100 µM | > 100 µM | > 100 µM | > 100 µM | > 100 µM | > 100 µM
4 | [N-]=[N+]=CC(=O)OCC1NC(=O)C(COC(=O)C=[N+]=[N-])NC1=O (stereo unspecified) | > 100 µM | > 100 µM | > 100 µM | > 100 µM | > 100 µM | > 100 µM | > 100 µM | > 100 µM | > 100 µM | > 100 µM | > 100 µM
5 | COc1ccc(NS(=O)c2c(C)cc(C)cc2C)cc1 (stereo unspecified) | > 100 µM | > 100 µM | > 100 µM | > 100 µM | > 100 µM | > 100 µM | > 100 µM | > 100 µM | > 100 µM | > 100 µM | > 100 µM
6 | COc1ccc2c(c1)-c1nc(=O)n(CCCN(C)C)c3ccc([N+](=O)[O-])c(c13)N2 | 12.2 µM | 3.24 µM | 3.87 µM | 17 µM | 4.89 µM | 2.44 µM | 0.841 µM | 6.85 µM | 19.4 µM | 18.4 µM | 25.2 µM
7 | O=C(O)c1cccc(OCCOc2cccc(C(=O)O)c2[N+](=O)[O-])c1[N+](=O)[O-] | > 100 µM | > 100 µM | > 100 µM | > 100 µM | > 100 µM | > 100 µM | > 100 µM | > 100 µM | > 100 µM | > 100 µM | > 100 µM
8 | CCc1ccc(Nc2cc(=O)n(C)c(SCc3ccccc3)n2)cc1 | 60.4 µM | > 100 µM | > 100 µM | > 100 µM | > 100 µM | > 100 µM | > 100 µM | > 100 µM | > 100 µM | 45.2 µM | > 100 µM
9 | COc1ccc(-n2c(Cn3nnc(-c4cccnc4)n3)nn(C3OC(COC(=O)c4ccccc4)C(OC(=O)c4ccccc4)C3OC(=O)c3ccccc3)c2=S)cc1 (stereo unspecified) | > 100 µM | > 100 µM | > 100 µM | > 100 µM | > 100 µM | > 100 µM | > 100 µM | > 100 µM | > 100 µM | > 100 µM | > 100 µM
10 | Cc1cc(C)c(S(=O)(=O)N(CCCN)OCCON(CCCN)S(=O)(=O)c2c(C)cc(C)cc2C)c(C)c1 | 40.4 µM | > 100 µM | > 24.9 µM | > 100 µM | 4.99 µM | > 100 µM | > 100 µM | 36.5 µM | 47.7 µM | > 100 µM | 21.2 µM
11 | CO[C@H]1O[C@@H]2OC3(C)CCC4[C@H](C)CCC([C@H]1C)[C@]42OO3 (stereo partly specified) | > 100 µM | > 100 µM | > 100 µM | > 100 µM | > 100 µM | > 100 µM | > 100 µM | > 100 µM | > 100 µM | > 100 µM | > 100 µM
